Measured values as given in patent US10556879B2, “Retinoid compound, preparation method therefor, intermediates thereof and application thereof” (SHANGHAI INSTITUTE OF ORGANIC CHEMISTRY, CHINESE ACADEMY OF …, priority 2016, dated 2020).
“And” between values parts separate entries of the source, which are not always exact repeats. Equal entries are not always repeated. “Also recorded” adds a separate entry of the source. Where two headings read alike, the source gives them in different places.

Tests used:
[1] = test system: tumor-repopulating cells of Hs-746T gastric cancer; assay: Inhibition of proliferation of tumor-repopulating cells, colony tumor volume in 3D fibrin gel; format: cell-based, human; details: Hs-746T TRCs
Description: (§1) Therefore, we further studied the inhibitory activity of this compound against tumor-repopulating cells of six other kinds of human tumor, including A549 lung cancer cell, MCF-7 breast cancer cell, MDA-MB-435S melanoma cell, A2780 ovarian cancer cell, Hs-746T gastric cancer cell, MDA-MB-231 breast cancer cell.
(§2) The above cancer cells were incubated with 3D fibrin gel medium (90-Pa) for 5 days, and the desired tumor-repopulating cells were screened. Subsequently, the culture medium was respectively treated with collagenase and neutral protease II, and the tumor-repopulating cells of B16-F1 melanoma were released, then the obtained repopulating cells were transferred to a freshly prepared medium to be resuspended and maintained at single-cell state. The tumor-repopulating cells of individual tumor were inoculated in 3D fibrin gel medium (90-Pa) for 5 days, with 0.1% DMSO as the negative control group (represented by DMSO group in FIGS. 3-8), the drug-free group as vehicle control group (represented by None group in FIGS. 3-8), and the study was performed by beginning administrating on the day 0 and the 3rd day respectively, and the colony tumor volume was measured and calculated.

[2] = test system: tumor-repopulating cells of MCF-7 breast cancer; assay: as above; format: cell-based, human; details: MCF-7 TRCs
Description: as §1, §2

[3] = test system: tumor-repopulating cells of MDA-MB-435S melanoma; assay: as above; format: cell-based, human; details: MDA-MB-435S TRCs
Description: as §1, §2

[4] = test system: tumor-repopulating cells of A549 lung cancer; assay: as above; format: cell-based, human; details: A549 TRCs
Description: as §1, §2

[5] = test system: 3T3 mouse embryonic fibroblast cells; assay: In vitro toxicity on normal cells (proliferation, apoptosis); format: cell-based; details: 10 μM
Description: (§3) The 3T3 mouse embryonic fibroblast cells and B16-F1 melanoma cells were used as the model to study in vitro toxicity of WYC-209 and WYC-331 respectively. The effect of compound WYC-209 and WYC-331 on the proliferation of 3T3 mouse embryonic fibroblast cells and B16-F1 melanoma cells were studied at a concentration of 10 μM.

[6] = test system: tumor-repopulating cells of B16-F1 melanoma; assay: Inhibitory activity on proliferation of tumor-repopulating cells (TRCs) of B16-F1 melanoma in 3D fibrin gel; format: cell-based; details: for IC50: colony tumor volume, read-out: IC50 of inhibition on TRCs of B16-F1 melanoma/μM
[7] = test system: B16-F1 metastatic melanoma in the lung; assay: B16-F1 metastatic melanoma in the lung model, 30,000 tumor-repopulating cells via tail vein (WYC-209); format: in vivo, mice (C57BL/6); details: for mice that suffered pulmonary metastatic melanoma: 30th day, 8 mice
Description: This experiment was performed to study whether WYC-209 could inhibit the metastasis of melanoma to the lung thus prevent secondary tumorigenesis. The B16-F1 cells were incubated with 3D fibrin gel medium (90-Pa) for 5 days, and the desired tumor-repopulating cells were screened. Subsequently, the culture medium was respectively treated with collagenase and neutral protease II, and the tumor-repopulating cells were released, then the obtained repopulating cells were transferred to a freshly prepared medium to be re-suspended and maintained at single-cell state. Then 24 immunocompetent mice (C57BL/6, female, 6-8 weeks) were randomly selected and divided into three groups which were respectively low-dose group (1.0 μM), high-dose group (10 μM) and DMSO negative control group, with 8 mice per group. Subsequently, the mice were injected via the tail vein with 30,000 tumor-repopulating cells of melanoma to establish a B16-F1 metastatic melanoma model in the mouse. Subsequently, Mice were administered via tail vein injection based on the body weight and the blood volume of the mice. From the 5th day on, mice in the treatment group were administrated with WYC-209 once every 2 days at a blood concentration of 1.0 μM and 10 μM; mice in the DMSO group was administered with 0.1% DMSO in a same route of administration as negative control. At this time, there was no significant difference in the body weight between the groups, the mice were fed normally, observing the survival of the mice.

[8] = test system: tumor-repopulating cells of A2780 ovarian cancer; assay: Inhibition of proliferation of tumor-repopulating cells, colony tumor volume in 3D fibrin gel; format: cell-based, human; details: A2780 TRCs
Description: as §1, §2
as §2, with “The above human tumor cells were” for “The above cancer cells were”, “cells of B16-F1 melanoma were inoculated” for “cells of individual tumor were inoculated”, “group in FIG. 9), the drug-free” for “group in FIGS. 3-8), the drug-free”, “measured and calculated, beginning administrating from the 3rd day at a concentration of 0.1 μM, 1.0 μM, and 10 μM respectively, the colony tumor volume was measured and calculated.” for “measured and calculated.”

[9] = test system: tumor-repopulating cells of MDA-MB-231 breast cancer; assay: as above; format: cell-based, human; details: MDA-MB-231 TRCs
Description: as §1, §2
as §2, with “The above human tumor cells were” for “The above cancer cells were”, “cells of B16-F1 melanoma were inoculated” for “cells of individual tumor were inoculated”, “group in FIG. 9), the drug-free” for “group in FIGS. 3-8), the drug-free”, “measured and calculated, beginning administrating from the 3rd day at a concentration of 0.1 μM, 1.0 μM, and 10 μM respectively, the colony tumor volume was measured and calculated.” for “measured and calculated.”

B16-F1 melanoma cells = assay: In vitro effect on B16-F1 melanoma cells (proliferation, apoptosis) in the toxicity study; format: cell-based; details: 10 μM
Description: as §3

With `CCOC(=O)c1cnc(C#Cc2ccc3c(c2)C(C)(C)CC[S+]3[O-])nc1` (stereo not shown) [WYC-209, ethyl 2-((4,4-dimethyl-1-oxothiochroman-6-yl)ethynyl)pyrimidin-5-carboxylate] the “growth trend of colony tumor” value [1] was “reverse the growth trend of colony tumor”, the “volume of tumor colony relative to None group” value ([1]; 1.0 μM) was 25-30% and the “volume of colony tumor relative to None group” value ([1]; 10 μM) was “less than 10%”. The “volume of tumor colony relative to None group” value ([2]; 1.0 μM) was 25-30%, the “volume of colony tumor relative to None group” value ([2]; 10 μM) was “less than 10%” and the “volume of tumor colony relative to None group” value ([3]; 1.0 μM) was 25-30%. For the same compound, the “volume of colony tumor relative to None group” value ([3]; 10 μM) was “less than 10%”, the “volume of tumor colony relative to None group” value ([4]; 1.0 μM) was 25-30% and the “volume of colony tumor relative to None group” value ([4]; 10 μM) was “less than 10%”. The “effect on proliferation of 3T3 mouse embryonic fibroblast cells” value [5] was “did not affect the proliferation; also recorded: no effect on the growth of 3T3 cell clones”, the “induction of apoptosis of 3T3 mouse embryonic fibroblast cells” value [5] was “did not induce apoptosis; also recorded: could not induce apoptosis” and the inhibition at 10 µM ([6]; Mus musculus, B16-F1, 120 h, 10 μM, incubated 5 days, colony tumor size, read-out: Inhibition rate on TRCs of B16-F1 melanoma at a concentration of 10 μM (%)) was 98.8%. The IC50 ([6]; Mus musculus, B16-F1, dose-response curve) was 0.25 µM, the inhibition at 10 µM ([6]; Mus musculus, B16-F1, 10 μM (Table 3), read-out: Inhibition rate on TRCs of B16-F1 melanoma at a concentration of 10 μM/%) was 98.8% and the IC50 ([6]; dose-response curve) was 0.19 µM. The “abnormalities in the liver and stomach” value ([7]; 1.0 μM treatment group) was “no abnormalities found in the liver and stomach”, the “abnormalities in the liver and stomach” value ([7]; 10 μM treatment group) was “no abnormalities found in the liver and stomach” and the “mice that suffered pulmonary metastatic melanoma” value ([7]; 1.0 μM treatment group) was 50%. The “mice that suffered pulmonary metastatic melanoma” value ([7]; 10 μM treatment group) was 12.5%, the “efficiency of preventing metastasis of repopulating cells of melanoma to the lung” value ([7]; blood concentration 1.0 μM) was 50% and the “efficiency of preventing metastasis of repopulating cells of melanoma to the lung” value ([7]; blood concentration 10 μM) was 87.5% and 87%. For the same compound, the toxic side effects ([7]; whole experiment) was “no obvious toxic side effects”, the “volume of tumor colony relative to None group” value ([8]; 1.0 μM) was 25-30% and the “volume of colony tumor relative to None group” value ([8]; 10 μM) was “less than 10%”. For the same compound, the “volume of tumor colony relative to None group” value ([9]; 1.0 μM) was 25-30%, the “volume of colony tumor relative to None group” value ([9]; 10 μM) was “less than 10%” and the “effect on proliferation of B16-F1 melanoma cells” value (B16-F1 melanoma cells) was “significantly block the growth”. For the same compound, the “induction of apoptosis of B16-F1 melanoma cells” value (B16-F1 melanoma cells) was “significant cell apoptosis”.
